Experimental data reported in PubChem BioAssay (NCI).
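GI50: concentration for 50% inhibition of growth. The concentration for full growth arrest is given as TGI.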

Assays:
Assay in all cases: DTP human tumour cell line panel, 384-well format
HCT-116 colon = test system: HCT-116 colon
COLO 205 colon = test system: COLO 205 colon
NCI-H23 lung = test system: NCI-H23 lung
K-562 leukemia = test system: K-562 leukemia
LOX IMVI melanoma = test system: LOX IMVI melanoma
UO-31 renal = test system: UO-31 renal
MDA-MB-231 breast = test system: MDA-MB-231 breast
KM12 colon = test system: KM12 colon
HS 578T breast = test system: HS 578T breast
NCI-H226 lung = test system: NCI-H226 lung
A549 NSCLC = test system: A549 NSCLC
786-0 renal = test system: 786-0 renal
HCC-2998 colon = test system: HCC-2998 colon
NCI-H322M lung = test system: NCI-H322M lung
UACC-257 melanoma = test system: UACC-257 melanoma
SNB-19 CNS = test system: SNB-19 CNS
NCI/ADR-RES ovarian = test system: NCI/ADR-RES ovarian
EKVX NSCLC = test system: EKVX NSCLC
NCI-H522 lung = test system: NCI-H522 lung
OVCAR-8 ovarian = test system: OVCAR-8 ovarian
SW-620 colon = test system: SW-620 colon
HOP-92 NSCLC = test system: HOP-92 NSCLC
RXF 393 renal = test system: RXF 393 renal
CAKI-1 renal = test system: CAKI-1 renal
NCI-H460 NSCLC = test system: NCI-H460 NSCLC
A498 renal = test system: A498 renal
SNB-75 CNS = test system: SNB-75 CNS
TK-10 renal = test system: TK-10 renal
OVCAR-5 ovarian = test system: OVCAR-5 ovarian
OVCAR-3 ovarian = test system: OVCAR-3 ovarian
SK-MEL-5 melanoma = test system: SK-MEL-5 melanoma
SK-MEL-28 melanoma = test system: SK-MEL-28 melanoma
IGROV1 ovarian = test system: IGROV1 ovarian
HCT-15 colon = test system: HCT-15 colon
OVCAR-4 ovarian = test system: OVCAR-4 ovarian
MALME-3M melanoma = test system: MALME-3M melanoma
BT-549 breast = test system: BT-549 breast
T-47D breast = test system: T-47D breast
RPMI-8226 leukemia = test system: RPMI-8226 leukemia
MDA-MB-435 melanoma = test system: MDA-MB-435 melanoma
SK-OV-3 ovarian = test system: SK-OV-3 ovarian
PC-3 prostate = test system: PC-3 prostate
SF-295 CNS = test system: SF-295 CNS
UACC-62 melanoma = test system: UACC-62 melanoma
HT29 colon = test system: HT29 colon
MOLT-4 leukemia = test system: MOLT-4 leukemia
SN12C renal = test system: SN12C renal
SR leukemia = test system: SR leukemia
M14 melanoma = test system: M14 melanoma
HOP-62 NSCLC = test system: HOP-62 NSCLC
MDA-MB-468 breast = test system: MDA-MB-468 breast
HL-60(TB) leukemia = test system: HL-60(TB) leukemia
DU-145 prostate = test system: DU-145 prostate
SF-268 CNS = test system: SF-268 CNS
SF-539 CNS = test system: SF-539 CNS
ACHN renal = test system: ACHN renal
CCRF-CEM leukemia = test system: CCRF-CEM leukemia
MCF7 breast = test system: MCF7 breast

## CCc1c2c(nc3ccc(O)cc13)-c1cc3c(c(=O)n1C2)COC(=O)[C@]3(O)CC
HCT-116 colon
  TGI: 0.114 µM
COLO 205 colon
  TGI: 1.06 µM
NCI-H23 lung
  TGI: 0.0133 µM
K-562 leukemia
  TGI: 0.292 µM
LOX IMVI melanoma
  TGI: 0.0238 µM
UO-31 renal
  TGI: 0.0495 µM
MDA-MB-231 breast
  GI50: 0.128 µM
  TGI: 3.8 µM
KM12 colon
  GI50: 0.0205 µM
  TGI: 0.153 µM
HS 578T breast
  GI50: 0.14 µM
  TGI: 1.93 µM
NCI-H226 lung
  TGI: 0.135 µM
A549 NSCLC
  GI50: 0.0344 µM
  TGI: 1.06 µM
786-0 renal
  TGI: 0.0125 µM
HCC-2998 colon
  TGI: 0.0754 µM
NCI-H322M lung
  GI50: 0.0223 µM
  TGI: 0.12 µM
UACC-257 melanoma
  GI50: 0.0118 µM
  TGI: 0.285 µM
SNB-19 CNS
  TGI: 0.0163 µM
NCI/ADR-RES ovarian
  TGI: 0.0303 µM
EKVX NSCLC
  GI50: 0.0897 µM
  TGI: 2.63 µM
NCI-H522 lung
  TGI: 0.0316 µM
OVCAR-8 ovarian
  TGI: 0.0478 µM
SW-620 colon
  TGI: 0.239 µM
HOP-92 NSCLC
  TGI: 0.0644 µM
RXF 393 renal
  TGI: 0.0264 µM
CAKI-1 renal
  TGI: 0.0926 µM
NCI-H460 NSCLC
  TGI: 0.0156 µM
A498 renal
  TGI: 0.129 µM
SNB-75 CNS
  TGI: 0.0141 µM
TK-10 renal
  GI50: 0.0351 µM
  TGI: 0.919 µM
OVCAR-5 ovarian
  GI50: 0.0398 µM
  TGI: 0.249 µM
OVCAR-3 ovarian
  TGI: 0.0364 µM
SK-MEL-5 melanoma
  TGI: 0.0169 µM
SK-MEL-28 melanoma
  TGI: 0.156 µM
IGROV1 ovarian
  GI50: 0.0247 µM
  TGI: 1.05 µM
HCT-15 colon
  TGI: 0.137 µM
OVCAR-4 ovarian
  GI50: 0.0478 µM
  TGI: 0.224 µM
MALME-3M melanoma
  GI50: 0.0131 µM
  TGI: 0.297 µM
BT-549 breast
  TGI: 0.0264 µM
T-47D breast
  TGI: 0.0155 µM
RPMI-8226 leukemia
  TGI: 0.0616 µM
MDA-MB-435 melanoma
  GI50: 0.0331 µM
  TGI: 0.266 µM
SK-OV-3 ovarian
  TGI: 0.0175 µM
PC-3 prostate
  GI50: 0.115 µM
  TGI: 4.66 µM

## CCCCCCCCCCCCCCCCCCOP(=O)([O-])OC1CC[N+](C)(C)CC1
SF-295 CNS
  GI50: 11.7 µM
  TGI: 61.9 µM
UACC-62 melanoma
  GI50: 23.2 µM
  TGI: > 100 µM
COLO 205 colon
  GI50: 1.29 µM
  TGI: 16 µM
NCI-H23 lung
  GI50: > 100 µM
  TGI: > 100 µM
HT29 colon
  GI50: 2.9 µM
  TGI: 12.9 µM
K-562 leukemia
  GI50: 61.5 µM
  TGI: > 100 µM
LOX IMVI melanoma
  GI50: 16.9 µM
  TGI: 54 µM
UO-31 renal
  GI50: 45.9 µM
  TGI: > 100 µM
MOLT-4 leukemia
  GI50: 7.26 µM
  TGI: 19.9 µM
MDA-MB-231 breast
  GI50: 15.9 µM
  TGI: 52.7 µM
SN12C renal
  GI50: 25.5 µM
  TGI: 98 µM
KM12 colon
  GI50: 0.757 µM
  TGI: 10.1 µM
HS 578T breast
  GI50: 32.8 µM
  TGI: > 100 µM
NCI-H226 lung
  GI50: 50 µM
  TGI: > 100 µM
A549 NSCLC
  GI50: 14.4 µM
  TGI: 28 µM
786-0 renal
  GI50: 7.36 µM
  TGI: 31.3 µM
HCC-2998 colon
  GI50: 4.59 µM
  TGI: 26 µM
SR leukemia
  GI50: 0.406 µM
  TGI: 2 µM
NCI-H322M lung
  GI50: 60.9 µM
  TGI: > 100 µM
UACC-257 melanoma
  GI50: > 100 µM
  TGI: > 100 µM
SNB-19 CNS
  GI50: 21.3 µM
  TGI: 77 µM
NCI/ADR-RES ovarian
  GI50: > 100 µM
  TGI: > 100 µM
M14 melanoma
  GI50: 21.1 µM
  TGI: 62.8 µM
EKVX NSCLC
  GI50: 32.5 µM
  TGI: > 100 µM
NCI-H522 lung
  GI50: 8.69 µM
  TGI: 23.1 µM
OVCAR-8 ovarian
  GI50: 39.9 µM
  TGI: > 100 µM
SW-620 colon
  GI50: 10 µM
  TGI: > 100 µM
HOP-92 NSCLC
  GI50: 11.6 µM
  TGI: 24.6 µM
HOP-62 NSCLC
  GI50: 11.4 µM
  TGI: 28.4 µM
RXF 393 renal
  GI50: 2.87 µM
  TGI: 18.1 µM
CAKI-1 renal
  GI50: 10.8 µM
  TGI: 24.5 µM
MDA-MB-468 breast
  GI50: 23.2 µM
  TGI: 49 µM
NCI-H460 NSCLC
  GI50: 1.47 µM
  TGI: 14.7 µM
HL-60(TB) leukemia
  GI50: 1.45 µM
  TGI: 2.85 µM
A498 renal
  GI50: 17.2 µM
  TGI: 92.2 µM
SNB-75 CNS
  GI50: 68.8 µM
  TGI: > 100 µM
TK-10 renal
  GI50: 1.48 µM
  TGI: 3 µM
DU-145 prostate
  GI50: 36.4 µM
  TGI: > 100 µM
SF-268 CNS
  GI50: 22.2 µM
  TGI: 85.7 µM
OVCAR-5 ovarian
  GI50: 6.35 µM
  TGI: 36.4 µM
SF-539 CNS
  GI50: > 100 µM
  TGI: > 100 µM
OVCAR-3 ovarian
  GI50: 64 µM
  TGI: > 100 µM
SK-MEL-5 melanoma
  GI50: > 100 µM
  TGI: > 100 µM
SK-MEL-28 melanoma
  GI50: > 100 µM
  TGI: > 100 µM
IGROV1 ovarian
  GI50: 1.67 µM
  TGI: 3.99 µM
HCT-15 colon
  GI50: 3.21 µM
  TGI: 11 µM
OVCAR-4 ovarian
  GI50: 25.7 µM
  TGI: 76.6 µM
ACHN renal
  GI50: 15.9 µM
  TGI: 30.6 µM
MALME-3M melanoma
  GI50: > 100 µM
  TGI: > 100 µM
BT-549 breast
  GI50: 11.5 µM
  TGI: 24.3 µM
T-47D breast
  GI50: 29.6 µM
  TGI: > 100 µM
RPMI-8226 leukemia
  GI50: 0.32 µM
  TGI: 0.819 µM
MDA-MB-435 melanoma
  GI50: > 100 µM
  TGI: > 100 µM
SK-OV-3 ovarian
  GI50: > 100 µM
  TGI: > 100 µM
CCRF-CEM leukemia
  GI50: 1.8 µM
  TGI: 4.79 µM
PC-3 prostate
  GI50: 0.362 µM
  TGI: 1.4 µM
MCF7 breast
  GI50: 57.5 µM
  TGI: > 100 µM
